# Results as given in patent publication US20240309016A1, “MACROCYCLIC HETEROCYCLE COMPOUNDS AND USE THEREOF” (TAKEDA PHARMACEUTICAL COMPANY LIMITED, priority 2023, published 2024).
# Biological target: T1, human OX2 receptor (Homo sapiens, UniProt O43614)
# T1 construct: expressed in transfected cells
# T1 sequence (O43614 1-444): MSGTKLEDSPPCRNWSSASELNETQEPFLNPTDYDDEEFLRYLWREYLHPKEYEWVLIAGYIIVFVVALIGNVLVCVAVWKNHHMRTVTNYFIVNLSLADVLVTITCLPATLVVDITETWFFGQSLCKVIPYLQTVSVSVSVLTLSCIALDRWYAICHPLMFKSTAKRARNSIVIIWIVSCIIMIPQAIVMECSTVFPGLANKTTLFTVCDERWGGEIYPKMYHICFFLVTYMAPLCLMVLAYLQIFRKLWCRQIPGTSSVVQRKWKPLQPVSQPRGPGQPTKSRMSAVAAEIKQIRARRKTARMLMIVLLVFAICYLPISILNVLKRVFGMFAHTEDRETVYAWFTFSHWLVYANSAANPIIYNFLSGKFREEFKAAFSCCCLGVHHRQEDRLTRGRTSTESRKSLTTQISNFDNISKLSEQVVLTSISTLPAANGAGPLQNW
# Assay: Measurement of orexin type 2 receptor agonist activity (Experimental Example 2; Fluo-4 AM calcium fluorescence, FDSS μCELL)
# Type: cell-based
# Details: compound at 3 μM; CHO cells expressing human OX2 receptor; DMSO = 0%, 10 nM orexin A (human) = 100%
# How it was run: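 Agonism was tested in CHO-K1 cells stably expressing human OX2 receptor (residues 1-444), loaded with Fluo-4 AM plus probenecid. Calcium fluorescence was recorded for 1 min 40 s after compound addition. Activity (%) was scaled between DMSO (0%) and 10 nM orexin A (100%) and reported at 3 μM compound.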
row,"OX2R agonist activity (3 μM, %) [%]",Structure (SMILES)
1,104,"CS(=O)(=O)N[C@@H]1[C@@H]2Cc3cccc(c3F)Oc3nc(ccc3Cl)CN(CC(F)F)C(=O)N2CC1(F)F [Example 60, N-[(15aS,16R)-7-chloro-2-(2,2-difluoroethyl)-17,17,20-trifluoro-1-oxo-2,3,15a,16,17,18-hexahydro-1H,15H-4,8-(azeno)-14,10-(metheno)pyrrolo[1,2-j][1,8,10]oxadiazacyclo-heptadecin-16-yl]methanesulfonamide]"
2,106,"CCS(=O)(=O)N[C@@H]1[C@@H]2Cc3cccc(c3F)Oc3nc(cnc3C)CCC(=O)N2CC1(F)F [Example 61, N-[(1R,19aS)-2,2,20-trifluoro-11-methyl-5-oxo-2,3,6,7,19,19a-hexahydro-1H,5H-8,12-(azeno)-18,14-(metheno)pyrrolo[1,2-j][1,4,10]oxadiazacyclo-heptadecin-1-yl]ethanesulfonamide]"
3,102,"CS(=O)(=O)N[C@@H]1[C@@H]2Cc3cccc(c3F)Oc3nc(ccc3Cl)OCC(=O)N2CC1(F)F [Example 62, N-[(15aS,16R)-7-chloro-17,17,20-trifluoro-1-oxo-1,2,15a,16,17,18-hexahydro-15H-4,8-(azeno)-14,10-(metheno)pyrrolo[1,2-d][1,12,4]dioxazacyclo-heptadecin-16-yl]methanesulfonamide]"
4,106,"CNS(=O)(=O)N[C@@H]1[C@@H]2Cc3cccc(c3F)Oc3nc(ccc3Cl)OCC(=O)N2CC1(F)F [Example 63, N-[(15aS,16R)-7-chloro-17,17,20-trifluoro-1-oxo-1,2,15a,16,17,18-hexahydro-15H-4,8-(azeno)-10,14-(metheno)pyrrolo[1,2-d][1,12,4]dioxazacyclo-heptadecin-16-yl]-N′-methylsulfuric diamide]"
5,105,"CS(=O)(=O)N[C@@H]1[C@@H]2Cc3cccc(c3F)Oc3nc(ncc3Cl)OCC(=O)N2CC1(F)F [Example 64, N-[(15aS,16R)-7-chloro-17,17,20-trifluoro-1-oxo-1,2,15a,16,17,18-hexahydro-15H-4,8-(azeno)-10,14-(metheno)pyrrolo[2,1-n][1,7,3,15]dioxadiazacyclo-heptadecin-16-yl]methanesulfonamide]"
6,102,"Cc1ncc2nc1Oc1cccc(c1F)C[C@H]1[C@@H](NS(C)(=O)=O)C(F)(F)CN1C(=O)CO2 [Example 65, N-[(15aS,16R)-17,17,20-trifluoro-7-methyl-1-oxo-1,2,15a,16,17,18-hexahydro-15H-4,8-(azeno)-10,14-(metheno)pyrrolo[1,2-j][1,7,4,10]dioxadiazacyclo-heptadecin-16-yl]methanesulfonamide]"
7,97,"Cc1ccc2nc1COc1cccc(c1F)C[C@H]1[C@@H](NS(C)(=O)=O)C(F)(F)CN1C(=O)CO2 [Example 66, N-[(16aS,17R)-18,18,21-trifluoro-7-methyl-1-oxo-1,2,16a,17,18,19-hexahydro-9H,16H-4,8-(azeno)-11,15-(metheno)pyrrolo[1,2-d][1,12,4]dioxazacyclo-octadecin-17-yl]methanesulfonamide]"
8,103,"CS(=O)(=O)N[C@H]1[C@@H](F)CN2C(=O)COc3ccc(Cl)c(n3)Cc3cccc(c3F)C[C@@H]12 [Example 67, N-[(15aS,16R,17S)-7-chloro-17,20-difluoro-1-oxo-1,2,15a,16,17,18-hexahydro-9H,15H-4,8-(azeno)-14,10-(metheno)pyrrolo[1,2-d][1,4]oxazacycloheptadecin-16-yl]methanesulfonamide]"
9,101,"CCS(=O)(=O)N[C@H]1[C@@H](F)CN2C(=O)COc3ccc(Cl)c(n3)Oc3cccc(c3)C[C@@H]12 [Example 69, N-[(15aS,16R,17S)-7-chloro-17-fluoro-1-oxo-1,2,15a,16,17,18-hexahydro-15H-4,8-(azeno)-14,10-(metheno)pyrrolo[1,2-d][1,12,4]dioxazacyclo-heptadecin-16-yl]ethanesulfonamide]"
10,103,"CCS(=O)(=O)N[C@H]1[C@@H](F)CN2C(=O)N(C)Cc3ccc(Cl)c(n3)Oc3cccc(c3)C[C@@H]12 [Example 70, N-[(15aS,16R,17S)-7-chloro-17-fluoro-2-methyl-1-oxo-2,3,15a,16,17,18-hexahydro-1H,15H-4,8-(azeno)-10,14-(metheno)pyrrolo[1,2-j][1,8,10]oxadiazacyclo-heptadecin-16-yl]ethanesulfonamide]"
11,99,"CCS(=O)(=O)N[C@H]1[C@@H](F)CN2C(=O)COc3ncc(C)c(n3)Oc3cccc(c3)C[C@@H]12 [Example 71, N-[(15aS,16R,17S)-17-fluoro-7-methyl-1-oxo-1,2,15a,16,17,18-hexahydro-15H-4,8-(azeno)-10,14-(metheno)pyrrolo[2,1-n][1,7,3,15]dioxadiazacyclo-heptadecin-16-yl]ethanesulfonamide]"
12,104,"CCS(=O)(=O)N[C@H]1[C@@H](F)CN2C(=O)COc3ccc(Cl)c(n3)Cc3cccc(c3F)C[C@@H]12 [Example 72, N-[(15aS,16R,17S)-7-chloro-17,20-difluoro-1-oxo-1,2,15a,16,17,18-hexahydro-9H,15H-4,8-(azeno)-14,10-(metheno)pyrrolo[1,2-d][1,4]oxazacycloheptadecin-16-yl]ethanesulfonamide]"
13,101,"CCS(=O)(=O)N[C@H]1[C@@H](F)CN2C(=O)N(C)Cc3ccc(Cl)c(n3)Oc3cccc(c3F)C[C@@H]12 [Example 73, N-[(15aS,16R,17S)-7-chloro-17,20-difluoro-2-methyl-1-oxo-2,3,15a,16,17,18-hexahydro-1H,15H-4,8-(azeno)-10,14-(metheno)pyrrolo[1,2-j][1,8,10]oxadiazacyclo-heptadecin-16-yl]ethanesulfonamide]"
14,96,"Cc1cnc2nc1Oc1cccc(c1F)C[C@H]1[C@@H](NS(C)(=O)=O)C(F)(F)CN1C(=O)[C@@H]1C[C@@H](F)CN21 [Example 74, N-[(2R,16aS,17R,21aS)-2,18,18,22-tetrafluoro-8-methyl-21-oxo-2,3,16a,17,18,19,21,21a-octahydro-1H,16H-5,9-(azeno)-11,15-(metheno)dipyrrolo[1,2-g:1′,2′-j][1,5,7,10]oxatriazacyclo-heptadecin-17-yl]methanesulfonamide]"
15,95,"Cc1cnc2nc1Oc1cccc(c1F)C[C@H]1[C@@H](NS(C)(=O)=O)C(F)(F)CN1C(=O)CN2C [Example 75, N-[(15aS,16R)-17,17,20-trifluoro-3,7-dimethyl-1-oxo-2,3,15a,16,17,18-hexahydro-1H,15H-4,8-(azeno)-10,14-(metheno)pyrrolo[1,2-j][1,5,7,10]oxatriazacyclo-heptadecin-16-yl]methanesulfonamide]"
16,96,"CCS(=O)(=O)N[C@H]1[C@@H](F)CN2C(=O)COc3ccc(Br)c(n3)Oc3cccc(c3)C[C@@H]12 [Example 76, N-[(15aS,16R,17S)-7-bromo-17-fluoro-1-oxo-1,2,15a,16,17,18-hexahydro-15H-4,8-(azeno)-14,10-(metheno)pyrrolo[1,2-d][1,12,4]dioxazacyclo-heptadecin-16-yl]ethanesulfonamide]"
17,104,"Cc1cnc2nc1Oc1cccc(c1F)C[C@H]1[C@@H](NS(C)(=O)=O)C(F)(F)CN1C(=O)CO2 [Example 77, N-[(15aS,16R)-17,17,20-trifluoro-7-methyl-1-oxo-1,2,15a,16,17,18-hexahydro-15H-4,8-(azeno)-10,14-(metheno)pyrrolo[2,1-n][1,7,3,15]dioxadiazacyclo-heptadecin-16-yl]methanesulfonamide]"
18,97,"CCS(=O)(=O)N[C@H]1[C@@H](F)CN2C(=O)COc3ccc(C)c(n3)Oc3cccc(c3)C[C@@H]12 [Example 78, N-[(15aS,16R,17S)-17-fluoro-7-methyl-1-oxo-1,2,15a,16,17,18-hexahydro-15H-4,8-(azeno)-14,10-(metheno)pyrrolo[1,2-d][1,12,4]dioxazacyclo-heptadecin-16-yl]ethanesulfonamide]"
19,102,"CCc1ccc2nc1Oc1cccc(c1F)C[C@H]1[C@@H](NS(C)(=O)=O)C(F)(F)CN1C(=O)NC2 [Example 79, N-[(15aS,16R)-7-ethyl-17,17,20-trifluoro-1-oxo-2,3,15a,16,17,18-hexahydro-1H,15H-4,8-(azeno)-14,10-(metheno)pyrrolo[1,2-j][1,8,10]oxadiazacyclo-heptadecin-16-yl]methanesulfonamide]"
20,100,"CCS(=O)(=O)N[C@H]1[C@@H](F)CN2C(=O)COc3ccc(Cl)c(n3)Oc3cccc(c3F)C[C@@H]12 [Example 80, N-[(15aS,16R,17S)-7-chloro-17,20-difluoro-1-oxo-1,2,15a,16,17,18-hexahydro-15H-4,8-(azeno)-14,10-(metheno)pyrrolo[1,2-d][1,12,4]dioxazacyclo-heptadecin-16-yl]ethanesulfonamide]"
21,102,"CCS(=O)(=O)N[C@@H]1[C@@H]2Cc3cccc(c3F)Oc3nc(cnc3C)OCC(=O)N2CC1(F)F [Example 81, N-[(15aS,16R)-17,17,20-trifluoro-7-methyl-1-oxo-1,2,15a,16,17,18-hexahydro-15H-4,8-(azeno)-10,14-(metheno)pyrrolo[1,2-j][1,7,4,10]dioxadiazacyclo-heptadecin-16-yl]ethanesulfonamide]"
